Test results: patent US8912219B2, “Aryl sulfamide and sulfamate derivatives as RORc modulators” (Genentech, Inc., priority 2013, dated 2014)

Molecular target: RORc ligand binding domain (Homo sapiens (Human), UniProt P51449)
Sequence (P51449 269-508): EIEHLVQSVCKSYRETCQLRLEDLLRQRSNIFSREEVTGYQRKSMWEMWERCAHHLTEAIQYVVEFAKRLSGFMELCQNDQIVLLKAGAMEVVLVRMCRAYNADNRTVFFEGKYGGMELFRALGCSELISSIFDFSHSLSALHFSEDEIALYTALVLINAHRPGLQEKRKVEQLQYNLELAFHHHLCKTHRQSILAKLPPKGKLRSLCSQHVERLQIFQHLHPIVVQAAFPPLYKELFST

Compared with `CC(=O)N1CCN(c2ccc(CN(C3CCC3)S(=O)(=O)N(C)c3ccccc3)c(F)c2)CC1` [Compound 2, 1-(4-(4-acetylpiperazin-1-yl)-2-fluorobenzyl)-1-cyclobutyl-3-methyl-3-phenyl-sulfonamide], `CC(=O)N1CCN(c2ccc(CN(C3CCC3)S(=O)(=O)Oc3ccccc3)c(F)c2)CC1` [Compound 10, phenyl 4-(4-acetylpiperazin-1-yl)-2-fluorobenzyl(cyclobutyl)sulfamate] is 4-fold lower in IC50: 28 nM for the first, 7 nM for the second.

First: CS(=O)(=O)N1CCC(Oc2ccc(N3CCN(Cc4ccc(F)cc4)S3(=O)=O)cc2)CC1 [Compound 3, 2-(4-fluorobenzyl)-5-(4-((1-(methylsulfonyl)piperidin-4-yl)oxy)phenyl)-1,2,5-thiadiazolidine 1,1-dioxide]
Second: CC(C)CN(Cc1ccc(F)cc1)S(=O)(=O)Nc1ccc(OC2CCN(S(C)(=O)=O)CC2)cc1 [Compound 4, 1-(4-fluorobenzyl)-1-isobutyl-3-(4-((1-(methylsulfonyl)piperidin-4-yl)oxy)phenyl)-sulfamide]
The IC50 of the first is 28-fold higher: 6420 nM for the first, 230 nM for the second.
